According to patent publication US6630471B1, “Substituted triazolo-pyridazine derivative, pharmaceutical compositions made therefrom” (Merck Sharp & Dohme Ltd., priority 1998, dated 2003):
Blank lines part the entries; values can stand above or below the compound they belong to.

What was measured:
[1] = moisture vapour sorption (adsorption/desorption isotherm); format: physicochemical
Protocol: These moisture vapour sorption studies show formation of a dihydrate above 80% relative humidity (RH) at 25° C. Hysteresis indicative of hydrate formation is seen to occur, with desorption occurring below ca. 60% RH.

[2] = aqueous solubility; format: physicochemical
Excerpt: This conversion is slow due to the low aqueous solubility of Compound I in relation to the large excess of solid compound slurried.

relative humidity of dihydrate formation ([1]; 25° C., adsorption): above 80 % relative humidity (RH) | relative humidity of desorption (hysteresis) ([1]; 25° C., desorption): < 60 % RH
SMILES: CCn1ncnc1COc1nn2c(-c3ccccc3F)nnc2cc1C(C)(C)C [Compound I polymorph A, 7-(1,1-Dimethylethyl)-6-(2-ethyl-2H-1,2,4-triazol-3-ylmethoxy)-3-(2-fluorophenyl)-1,2,4-triazolo[4,3-b]pyridazine]

aqueous solubility [2]: low
SMILES: CCn1ncnc1COc1nn2c(-c3ccccc3F)nnc2cc1C(C)(C)C [Compound I, 7-(1,1-Dimethylethyl)-6-(2-ethyl-2H-1,2,4-triazol-3-ylmethoxy)-3-(2-fluorophenyl)-1,2,4-triazolo[4,3-b]pyridazine]

stability of the dihydrate ([1]; humidity): stable, but only at elevated humidities
SMILES: CCn1ncnc1COc1nn2c(-c3ccccc3F)nnc2cc1C(C)(C)C [dihydrate of polymorph A, 7-(1,1-Dimethylethyl)-6-(2-ethyl-2H-1,2,4-triazol-3-ylmethoxy)-3-(2-fluorophenyl)-1,2,4-triazolo[4,3-b]pyridazine]
